Reference: ChEMBL document CHEMBL2086385, “Synthesis and antimicrobial evaluation of L-phenylalanine-derived C5-substituted rhodanine and chalcone derivatives containing thiobarbituric acid or 2-thioxo-4-thiazolidinone” (2012)
In brackets after ≈: the same amount, converted by molar mass.

Legend:
Format in all cases: functional
[1] = system: Staphylococcus aureus; experiment: Ratio of norfloxacin MIC to compound MIC for quinolone-resistant Staphylococcus aureus CCARM 3519 clinical isolate
[2] = system: Staphylococcus aureus; experiment: Antibacterial activity against methicillin-resistant Staphylococcus aureus CCARM 3506 clinical isolate after 24 hrs by broth microdilution method; conditions: CCARM 3506, 24 h
[3] = system: Staphylococcus aureus; experiment: Antibacterial activity against Staphylococcus aureus RN4220 after 24 hrs by broth microdilution method; conditions: RN4220, 24 h
[4] = system: Escherichia coli; experiment: Antibacterial activity against Escherichia coli CCARM 1356 after 24 hrs by broth microdilution method; conditions: CCARM 1356, 24 h
[5] = system: Staphylococcus aureus; experiment: Antibacterial activity against quinolone-resistant Staphylococcus aureus CCARM 3519 clinical isolate after 24 hrs by broth microdilution method; conditions: CCARM 3519, 24 h
[6] = system: Staphylococcus aureus; experiment: Antibacterial activity against Staphylococcus aureus KCTC 503 after 24 hrs by broth microdilution method; conditions: KCTC 503, 24 h
[7] = system: Staphylococcus aureus; experiment: Ratio of norfloxacin MIC to compound MIC for quinolone-resistant Staphylococcus aureus CCARM 3505 clinical isolate
[8] = system: Staphylococcus aureus; experiment: Antibacterial activity against quinolone-resistant Staphylococcus aureus CCARM 3505 clinical isolate after 24 hrs by broth microdilution method; conditions: CCARM 3505, 24 h
[9] = system: Staphylococcus aureus; experiment: Ratio of norfloxacin MIC to compound MIC for methicillin-resistant Staphylococcus aureus CCARM 3506 clinical isolate
[10] = system: Staphylococcus aureus; experiment: Antibacterial activity against Staphylococcus aureus KCTC 209 after 24 hrs by broth microdilution method; conditions: KCTC 209, 24 h
[11] = system: Staphylococcus aureus; experiment: Antibacterial activity against methicillin-resistant Staphylococcus aureus CCARM 3167 clinical isolate after 24 hrs by broth microdilution method; conditions: CCARM 3167, 24 h
[12] = system: Staphylococcus aureus; experiment: Ratio of norfloxacin MIC to compound MIC for methicillin-resistant Staphylococcus aureus CCARM 3167 clinical isolate

O=C(O)[C@H](Cc1ccccc1)N1C(=O)/C(=C\c2ccc(OCc3ccccc3)cc2)SC1=S
Ratio [1]: 2 | MIC [2]: 8 µg/mL (≈ 16.8 µM) | MIC [3]: 2 µg/mL (≈ 4.21 µM) | MIC [4]: > 64 µg/mL | MIC [5]: 8 µg/mL (≈ 16.8 µM) | MIC [6]: 8 µg/mL (≈ 16.8 µM) | Ratio [7]: 2 | MIC [8]: 4 µg/mL (≈ 8.41 µM) | Ratio [9]: 2 | MIC [10]: 8 µg/mL (≈ 16.8 µM) | MIC [11]: 4 µg/mL (≈ 8.41 µM) | Ratio [12]: 2
